How the values were obtained:
Treg cells = assay: pSTAT5 signaling in human LRS-derived PBMC samples, Treg cells (flow cytometry); format: cell-based; conditions: for EC50 for pSTAT5 signaling, Treg cells: Table 13 (Example 11); for Fold increase in Treg EC50 vs native IL-2: compared to native IL-2 run in each individual experiment
Method: (§1) These studies were performed at PrimityBio LLC (Fremont, CA). […] Staining panel for flow cytometry study of LRS-derived PBMC samples include markers for Effector T cells (Teff: CD3+, CD4+, CD8+, CD127+), NK cells (CD3-, CD16+), and Regulatory T cells (Treg: CD3+, CD4+, CD8-, IL-2Rα+, CD127-1).
(§2) These studies were performed at PrimityBio LLC (Fremont, CA). […] Staining panel for flow cytometry study of LRS-derived PBMC samples include markers CD4, CD4+ memory central, CD4+ memory effect, CD4+ memory T cells, CD4+ Naive T cells, CD4+ T cells, CD8, CD8+ memory central, CD8+ memory effect, CD8+ memory T cells, CD8+ Naive T cells, CD8+ T cells, NK cells, and T regulatory cells.
(§3) Conjugates of Table 13 were synthesized by modification of SEQ NO. 1. These studies were performed at PrimityBio LLC (Fremont, CA).

CTLL-2 = CTLL-2 proliferation; format: cell-based, mouse; conditions: Table 13 (Example 11)
CD8+ T cells = assay: pSTAT5 signaling in human LRS-derived PBMC samples, CD8+ T cells (flow cytometry); format: cell-based; conditions: Table 13 (Example 11)
Method: as §1, §2, §3

NK cells = assay: pSTAT5 signaling in human LRS-derived PBMC samples, NK cells (flow cytometry); format: cell-based; conditions: Table 13 (Example 11)
Method: as §1, §3

[1] = human transferrin; cited from earlier work

Substance	EC50 for pSTAT5 signaling, Treg cells (Treg cells)	Fold increase in Treg EC50 vs native IL-2 (Treg cells)	EC50 CTLL-2 proliferation (CTLL-2)	CD8+/Treg ratio (CD8+ T cells)	EC50 for pSTAT5 signaling, CD8+ Tcells (CD8+ T cells)	EC50 for pSTAT5 signaling, NK cells (NK cells)	half-life [1]
N88R/D109_30kD: IL-2 variant with N88R substitution and 30 kD PEG at D109	175805 pg/ml	3663	59.577 ng/mL	71	12503386 pg/ml	2780819 pg/ml	
V91K: IL-2 variant with V91K substitution [reference compound]	142 pg/ml	3	0.0995 ng/mL	720	102255 pg/ml	20537 pg/ml	
human transferrin: 679 amino acid polypeptide that is about 80 kDa in size and comprises two Fe^3+ binding sites							170 to 288 h
N88R: IL-2 variant with N88R substitution [reference compound]	11082 pg/ml	148	0.363 ng/mL	1356	15025734 pg/ml	2312847 pg/ml	

— patent publication US12521437B2 (Synthorx, Inc., priority 2019, dated 2026)
